Reference: US10745414B2, “Crystal salt form of 2,2-dimethyl-6-((4-((3,4,5-trimethoxyphenyl)amino)-1,3,5-triazine-2-yl)amino)-2H-pyrido[3,2-b][1,4]oxazine-3(4H)-one for human use” (LIMITED “MOLECULAR TECHNOLOGIES”, priority 2016, dated 2020)

Experiments:
[1] = target: human recombinant tyrosine c-Src kinase (Homo sapiens, UniProt P12931); test: human kinase enzymatic activity in vitro (33P-ATP, peptide substrate); type: biochemical
Procedure: (§1) The Compound 1 effect on the human recombinant tyrosine c-Src kinase was measured as follows: a peptide substrate was dissolved in a reaction buffer ad 0.2 mg/ml concentration. A solution of recombinant c-Src kinase was added to 2 nM concentration and the studied compound to the required concentration (within the range of 1 nM to 10 μM) was added. A solution of ^33P-ATP was added to 10 μM concentration (final specific activity of the solution is 0.01 μCi). After 120 minutes of incubation, the reaction mixture was applied on ion-exchange paper, which was rinsed with a plenty of phosphoric acid. A reaction extent was determined based on radioactivity of the reaction products.

[2] = pharmacokinetics in blood plasma after oral administration in Wistar rats; conditions: Wistar, rat, in vivo, po, 30 mg/kg
Procedure: At the first stage, pharmacokinetics of the Compound 1 free base was studied after oral administration in Wistar rats at dosage of 30 mg/kg.
Pharmacokinetics of several Compound 1 salt forms was studied after oral administration in Wistar rats at a dose of 37 mg/kg (30 mg/kg equivalent to a free base).

[3] = pKa of protonated pyridine nitrogen; type: physicochemical; conditions: protonated nitrogen atom of pyridine
From the text: To obtain a form having optimal biological and physical properties, various salt forms of the Compound 1 was synthesized. A primary goal of the salt form optimization was to obtain a Compound 1 salt form having the following properties: crystallinity, composition stability, therapeutic efficacy, safety, ease of production process scalability, using a pharmacologically acceptable counterion (preferably anion), and using low toxicity organic solvents. The salt forms of Compound 1 were obtained with organic solutions of high polarity and low toxicity (Class 3). The counterions were used based on pharmacological acceptance and high acid strength (pKa not exceeding 3.25). The requirement for the high acid strength is conditioned by the fact that a protonated nitrogen atom of pyridine of the Compound 1 is a weak base having pKa 4.

mature human osteoclasts = test: osteoclast-mediated resorption of mineralized matrix; type: cell-based
Procedure: The study was carried out following the method below: CD15+ monocytes (osteoclast precursor cells) were cultivated for 3 days in a proliferation medium (Igla α-modified minimum essential medium/fetal calf serum (aMEM/FCS), 10% with 25 ng/ml of macrophage colony-stimulating factor (M-CSF)). During this stage M-CSF promoted proliferation and expression of a receptor activator of nuclear factor KB (RANK, cappa-B, type I membrane protein). The proliferation medium was removed and cells were differentiated in a differentiation medium (aMEM/FCS-10% with 100 ng/ml of RANKL and 25 ng/ml of M-CSF). When mature osteoclasts were detected in the culture (day 4 of the study), the cells were collected and re-inoculated into a 96-well plate coated with a synthetic mineralized matrix. Cultivation continued for 48 hours (at presence of the studied compounds) to evaluate osteoclast resorption. Then number of mature osteoclasts and the resorption degree were evaluated. An effect of 4-methylbenzenesulfonic acid and Compound 1 salt concentration on concentration and resorption degree of mature osteoclasts was evaluated in comparison with control samples ([…] control, 0.3% DMSO solvent) and reference inhibitors, i.e., saracatinib and bosutinib (see FIG. 18).

[4] = solubility of the primary base in selected organic solvents; type: physicochemical; conditions: organic solvent or mixture, thermodynamic from solid
Procedure: At the first stage solubility of the primary base in the selected organic solvents was studied. Maximum volume of a solvent for this study was selected as 10 ml per 100 mg of the base taking into consideration the subsequent process scaling.

[5] = test system: Sprague-Dawley rat models of osteoarthritis induced by intra-articular introduction of sodium iodoacetate; test: mechanical allodynia test with von Frey filaments in osteoarthritis induced by sodium iodoacetate; type: in vivo
Procedure: The intra-articular introduction of aerobic glycolysis inhibitor (sodium iodoacetate) results in death of chondrocytes and acute inflammatory reaction in a synovial cavity. In absence of treatment, at day 10 from the pathology induction an onset of chronic pain is observed due to cartilage destruction and development of chronic inflammation in particular cases [J Musculoskel Neuron Interact 2001; 1(4):363-376]. Extent of osteoarthritis development in rats was evaluated by comparison of extremity pain sensitivity threshold after the introduction of sodium iodoacetate versus background measurements taken before the pathology induction. The threshold of the pain sensitivity was evaluated by mechanical allodynia test using von Frey filaments (see Table 8).
For the purposes of the study, rat males weighing 150 to 200 g were selected. All the animals underwent acclimatization for 14 days. The animals were housed in a polycarbonate cages of 3H type manufactured by Charles River laboratories Inc according to COST R 53434-2009. 12-hours lighting regimen was maintained. The animals had access to food and water ad libitum. The pathology was induced by introduction of 50 μl solution containing 2 mg of sodium iodoacetate into a synovial cavity of the animal knee joints. Tactile allodynia induced by a mechanical irritation was evaluated using von Frey filaments weighing 0.06 to 23.96 g. The test was repeated five times for each filament at intervals of 1 to 2 s. The sensitivity threshold was considered as a minimum reaction threshold provoking paw withdrawal in one of five repeats.

[6] = test system: chondrocytes from knee joint cartilage of young rats; test: IL-1β-induced hypertrophic changes in chondrocytes (aggrecan expression); type: cell-based, rats (Sprague Dawley)
Procedure: The study was carried out following the method below: chondrocytes were isolated from a knee joint cartilage of young rats (aged 3 weeks, Sprague Dawley line). The isolated chondrocytes in a cultural medium (Dulbecco's modified Igla minimum essential medium/fetal calf serum (DMEM/FCS), 10%, 4-(2-hydroxyethyl)-1-piperazine ethanesulfonic acid (HEPES), 25 mM) was stored frozen at −80° C. The obtained chondrocytes were unfrozen a day before the experiment, inoculated into 12-well plates and cultured as a monolayer during 24 hours. After 24 hours of incubation IL-1β-induced activation of chondrocytes and treatment with the studied compounds was started and continued for 3 days.

[7] = pharmacokinetics in blood plasma after oral administration in Wistar rats; conditions: rat, in vivo, 21 mg/kg
Lyn = Lyn (Homo sapiens, UniProt P07948); test: human kinase enzymatic activity in vitro; type: biochemical; conditions: 0.5 μmol/l
Syk kinase = Syk kinase (Homo sapiens, UniProt P43405); test: human kinase enzymatic activity in vitro; type: biochemical
Blk = Blk (Homo sapiens, UniProt P51451); test: human kinase enzymatic activity in vitro; type: biochemical; conditions: 0.5 μmol/l
Yes = Yes (Homo sapiens, UniProt P07947); test: human kinase enzymatic activity in vitro; type: biochemical; conditions: 0.5 μmol/l
Hck = Hck (Homo sapiens, UniProt P08631); test: human kinase enzymatic activity in vitro; type: biochemical; conditions: 0.5 μmol/l
Fyn = Fyn (Homo sapiens, UniProt P06241); test: human kinase enzymatic activity in vitro; type: biochemical; conditions: 0.5 μmol/l
Src-kinase family = test: human kinase enzymatic activity in vitro; type: biochemical; conditions: 0.5 μmol/l
Procedure: as §1

Lck = Lck (Homo sapiens, UniProt P06239); test: human kinase enzymatic activity in vitro; type: biochemical; conditions: 0.5 μmol/l
Fgr = Fgr (Homo sapiens, UniProt P09769); test: human kinase enzymatic activity in vitro; type: biochemical; conditions: 0.5 μmol/l
Frk = Frk (Homo sapiens, UniProt P42685); test: human kinase enzymatic activity in vitro; type: biochemical; conditions: 0.5 μmol/l
[8] = further clinical trials, daily exposure of a therapeutically effective dose; cited from earlier work

human recombinant tyrosine c-Src kinase, sequence (P12931 whole entry): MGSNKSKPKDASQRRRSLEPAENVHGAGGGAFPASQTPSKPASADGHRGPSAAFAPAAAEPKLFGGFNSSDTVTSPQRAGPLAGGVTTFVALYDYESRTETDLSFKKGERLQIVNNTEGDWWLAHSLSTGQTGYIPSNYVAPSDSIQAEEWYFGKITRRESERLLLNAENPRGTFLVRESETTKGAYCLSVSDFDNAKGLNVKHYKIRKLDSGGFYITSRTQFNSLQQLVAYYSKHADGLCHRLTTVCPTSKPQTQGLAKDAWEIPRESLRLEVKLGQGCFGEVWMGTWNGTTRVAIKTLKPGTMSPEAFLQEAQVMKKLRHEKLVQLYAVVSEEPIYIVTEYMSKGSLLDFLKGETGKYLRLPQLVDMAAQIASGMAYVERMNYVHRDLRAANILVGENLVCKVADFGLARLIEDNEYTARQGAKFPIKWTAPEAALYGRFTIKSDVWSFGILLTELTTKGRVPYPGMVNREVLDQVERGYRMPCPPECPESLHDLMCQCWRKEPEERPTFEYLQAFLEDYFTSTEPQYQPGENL
Lck, sequence (P06239 whole entry): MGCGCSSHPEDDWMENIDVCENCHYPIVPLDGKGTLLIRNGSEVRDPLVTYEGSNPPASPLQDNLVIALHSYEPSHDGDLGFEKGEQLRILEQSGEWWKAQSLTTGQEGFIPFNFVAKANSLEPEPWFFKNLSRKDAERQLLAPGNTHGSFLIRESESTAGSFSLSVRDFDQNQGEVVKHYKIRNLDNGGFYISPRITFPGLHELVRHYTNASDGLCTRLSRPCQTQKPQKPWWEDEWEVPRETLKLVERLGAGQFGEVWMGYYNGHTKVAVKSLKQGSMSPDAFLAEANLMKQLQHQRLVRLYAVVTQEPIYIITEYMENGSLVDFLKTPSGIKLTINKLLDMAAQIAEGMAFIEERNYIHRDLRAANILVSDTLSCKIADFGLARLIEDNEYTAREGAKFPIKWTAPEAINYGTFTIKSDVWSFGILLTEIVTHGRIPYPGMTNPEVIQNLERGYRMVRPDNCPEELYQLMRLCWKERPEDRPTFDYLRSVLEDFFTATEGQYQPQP
Fgr, sequence (P09769 whole entry): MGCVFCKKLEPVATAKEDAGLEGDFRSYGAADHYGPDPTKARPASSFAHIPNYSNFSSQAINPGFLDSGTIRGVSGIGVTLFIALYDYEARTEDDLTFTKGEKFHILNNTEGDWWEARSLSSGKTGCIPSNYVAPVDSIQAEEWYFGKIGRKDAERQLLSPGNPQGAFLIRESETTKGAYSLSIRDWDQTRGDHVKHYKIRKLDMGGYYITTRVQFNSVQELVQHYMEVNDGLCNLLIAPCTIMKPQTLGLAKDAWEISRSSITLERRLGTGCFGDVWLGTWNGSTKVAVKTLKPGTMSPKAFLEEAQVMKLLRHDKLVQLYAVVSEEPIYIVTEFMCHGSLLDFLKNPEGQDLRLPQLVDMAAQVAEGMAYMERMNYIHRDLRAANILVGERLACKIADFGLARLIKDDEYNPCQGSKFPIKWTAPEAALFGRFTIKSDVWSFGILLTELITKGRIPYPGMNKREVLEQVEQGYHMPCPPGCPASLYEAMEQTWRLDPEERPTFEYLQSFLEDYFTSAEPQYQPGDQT
Blk, sequence (P51451 whole entry): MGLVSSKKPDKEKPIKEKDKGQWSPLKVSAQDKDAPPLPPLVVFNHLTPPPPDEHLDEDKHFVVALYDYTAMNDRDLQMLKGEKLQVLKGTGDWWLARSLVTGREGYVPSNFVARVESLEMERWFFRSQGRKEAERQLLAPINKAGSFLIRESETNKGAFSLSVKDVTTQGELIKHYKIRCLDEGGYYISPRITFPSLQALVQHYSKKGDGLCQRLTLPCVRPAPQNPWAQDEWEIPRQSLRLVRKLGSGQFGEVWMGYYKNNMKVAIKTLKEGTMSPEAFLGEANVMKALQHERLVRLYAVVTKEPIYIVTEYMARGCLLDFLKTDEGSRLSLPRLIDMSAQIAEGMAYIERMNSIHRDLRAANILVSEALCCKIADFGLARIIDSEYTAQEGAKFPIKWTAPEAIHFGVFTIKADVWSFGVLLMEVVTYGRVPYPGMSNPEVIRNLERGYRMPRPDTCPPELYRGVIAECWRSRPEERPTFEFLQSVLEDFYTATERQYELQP
Hck, sequence (P08631 whole entry): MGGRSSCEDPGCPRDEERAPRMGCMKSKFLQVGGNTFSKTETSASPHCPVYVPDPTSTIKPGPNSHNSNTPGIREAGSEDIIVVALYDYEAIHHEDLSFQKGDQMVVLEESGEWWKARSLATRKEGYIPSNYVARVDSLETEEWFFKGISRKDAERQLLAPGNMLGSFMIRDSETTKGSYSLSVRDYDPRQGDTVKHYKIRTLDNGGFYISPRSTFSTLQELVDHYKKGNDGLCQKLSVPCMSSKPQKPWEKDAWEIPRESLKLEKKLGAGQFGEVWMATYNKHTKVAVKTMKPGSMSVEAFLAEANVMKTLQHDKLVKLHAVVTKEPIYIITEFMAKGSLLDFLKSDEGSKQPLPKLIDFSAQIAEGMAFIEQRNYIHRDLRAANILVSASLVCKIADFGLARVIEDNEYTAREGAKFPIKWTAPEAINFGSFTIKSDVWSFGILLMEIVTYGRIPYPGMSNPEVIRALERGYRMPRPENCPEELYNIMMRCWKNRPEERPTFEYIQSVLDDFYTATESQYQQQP
Lyn, sequence (P07948 whole entry): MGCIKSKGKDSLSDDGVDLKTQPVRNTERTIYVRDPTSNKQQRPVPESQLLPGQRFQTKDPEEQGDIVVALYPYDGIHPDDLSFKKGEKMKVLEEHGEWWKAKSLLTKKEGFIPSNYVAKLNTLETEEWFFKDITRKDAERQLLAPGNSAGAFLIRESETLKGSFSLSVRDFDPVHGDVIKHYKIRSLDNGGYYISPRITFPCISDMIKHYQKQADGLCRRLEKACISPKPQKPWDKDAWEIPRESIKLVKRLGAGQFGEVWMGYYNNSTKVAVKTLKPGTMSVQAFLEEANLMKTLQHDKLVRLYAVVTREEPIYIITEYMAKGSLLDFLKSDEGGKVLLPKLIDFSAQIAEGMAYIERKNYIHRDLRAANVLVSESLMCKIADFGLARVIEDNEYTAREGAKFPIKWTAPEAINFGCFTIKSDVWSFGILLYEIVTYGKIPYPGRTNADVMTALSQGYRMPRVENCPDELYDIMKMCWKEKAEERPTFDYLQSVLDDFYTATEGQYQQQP
Fyn, sequence (P06241 whole entry): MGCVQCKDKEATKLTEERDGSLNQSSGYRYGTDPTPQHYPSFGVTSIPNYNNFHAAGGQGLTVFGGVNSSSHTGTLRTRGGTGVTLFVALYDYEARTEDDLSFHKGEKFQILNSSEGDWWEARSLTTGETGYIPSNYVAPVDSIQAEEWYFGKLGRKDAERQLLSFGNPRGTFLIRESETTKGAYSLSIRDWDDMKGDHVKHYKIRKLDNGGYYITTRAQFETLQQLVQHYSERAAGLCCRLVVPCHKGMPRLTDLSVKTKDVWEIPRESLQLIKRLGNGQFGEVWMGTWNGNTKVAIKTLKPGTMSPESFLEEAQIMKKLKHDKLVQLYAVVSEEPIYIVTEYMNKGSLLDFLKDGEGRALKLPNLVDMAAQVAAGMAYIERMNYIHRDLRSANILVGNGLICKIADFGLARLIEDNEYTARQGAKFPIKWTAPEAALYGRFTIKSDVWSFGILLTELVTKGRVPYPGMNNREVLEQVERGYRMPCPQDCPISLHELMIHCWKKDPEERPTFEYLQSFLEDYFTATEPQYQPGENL
Yes, sequence (P07947 whole entry): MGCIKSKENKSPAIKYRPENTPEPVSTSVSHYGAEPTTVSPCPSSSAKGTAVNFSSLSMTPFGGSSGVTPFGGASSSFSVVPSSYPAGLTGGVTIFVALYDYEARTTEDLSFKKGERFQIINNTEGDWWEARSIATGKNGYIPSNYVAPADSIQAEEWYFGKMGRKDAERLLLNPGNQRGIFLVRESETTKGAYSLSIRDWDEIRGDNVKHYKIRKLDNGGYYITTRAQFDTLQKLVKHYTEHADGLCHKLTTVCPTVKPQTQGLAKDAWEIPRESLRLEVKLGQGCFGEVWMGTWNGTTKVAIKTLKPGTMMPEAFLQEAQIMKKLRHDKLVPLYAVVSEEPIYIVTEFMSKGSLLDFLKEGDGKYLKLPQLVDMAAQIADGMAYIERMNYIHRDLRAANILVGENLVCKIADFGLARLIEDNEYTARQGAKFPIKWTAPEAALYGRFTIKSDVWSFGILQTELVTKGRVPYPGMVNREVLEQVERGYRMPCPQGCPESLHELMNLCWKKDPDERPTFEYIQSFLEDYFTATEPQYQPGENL
Frk, sequence (P42685 whole entry): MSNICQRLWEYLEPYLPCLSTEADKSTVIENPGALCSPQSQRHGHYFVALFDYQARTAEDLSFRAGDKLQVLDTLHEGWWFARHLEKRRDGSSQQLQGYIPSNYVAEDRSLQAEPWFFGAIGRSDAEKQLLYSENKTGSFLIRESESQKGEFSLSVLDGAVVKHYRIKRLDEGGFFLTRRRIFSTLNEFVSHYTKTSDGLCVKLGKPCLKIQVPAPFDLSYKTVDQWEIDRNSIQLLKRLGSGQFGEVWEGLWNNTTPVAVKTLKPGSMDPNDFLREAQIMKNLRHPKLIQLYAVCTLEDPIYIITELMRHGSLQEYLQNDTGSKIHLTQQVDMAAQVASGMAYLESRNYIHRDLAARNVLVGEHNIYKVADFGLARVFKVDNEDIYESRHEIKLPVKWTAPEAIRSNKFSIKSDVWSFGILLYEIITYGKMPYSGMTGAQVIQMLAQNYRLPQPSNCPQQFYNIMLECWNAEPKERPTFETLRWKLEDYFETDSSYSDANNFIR

With `COc1cc(Nc2ncnc(Nc3ccc4c(n3)NC(=O)C(C)(C)O4)n2)cc(OC)c1OC` [Compound 1, 2,2-dimethyl-6-((4-((3,4,5-trimethoxyphenyl)amino)-1,3,5-triazine-2-yl)amino)-2H-pyrido[3,2-b][1,4]oxazine-3(4H)-one] the half-maximal inhibitory concentration ([1]; human c-Src kinase) was “within a nanomolar range”, the AUC0-t [2] was 55 ng·h/mL and the AUC(0-inf) [2] was 73 ng·h/mL. For the same compound, the Cmax [2] was 4.12 ng/mL, the Tmax [2] was 4 h and the “Vz(/F)” value [2] was 6,982.6 l/kg. The “average daily concentration of the substance” value [2] was 4.8 nmol/L, the half-life [2] was 11.8 h and the “maximum concentration of the substance in plasma” value [2] was 9.1 nmol/L. For the same compound, the “maximum plasma concentration relative to minimum effective concentration” value [2] was 100 times lower, the pKa [3] was 4 and the “effect on osteoclast-mediated resorption of the mineralized matrix” value (mature human osteoclasts; 48 hours cultivation) was “dose-dependent inhibitory effect”. For the same compound, the effective concentration (mature human osteoclasts; studies of Compound 1 biological activity) was “about 1 μmol/l”, the solubility ([4]; 1,4-Dioxane, 106 mg base in 7 ml, 100 °C (code S-1-4-D)) was > 10000 µg/mL and the solubility ([4]; Acetone, 97 mg base in 10 ml, 56 °C (code S-1-5-A1)) was < 10000 µg/mL. The solubility ([4]; Ethanol, 98 mg base in 10 ml, 78 °C (code S-1-2-C2)) was < 10000 µg/mL, the solubility ([4]; THF, 103 mg base in 10 ml, 66 °C (code S-1-3-T)) was < 10000 µg/mL and the solubility ([4]; n-Butanol, 101 mg base in 10 ml, 117 °C (code S-1-1-B)) was < 10000 µg/mL.
With `COc1ccc2cc([C@H](C)C(=O)O)ccc2c1` [Naproxen, reference compound] the “Reaction threshold value, % of control” value ([5]; 50 mg/kg intragastric, days 14, 21, 28, day 14) was 82 % of control, the “Reaction threshold value, % of control” value ([5]; 50 mg/kg intragastric, days 14, 21, 28, day 21) was 102 % of control and the “Reaction threshold value, % of control” value ([5]; 50 mg/kg intragastric, days 14, 21, 28, day 28) was 96 % of control.
With `O=P(O)(O)C(O)(Cn1ccnc1)P(=O)(O)O` [Zoledronic acid, reference compound] the “Reaction threshold value, % of control” value ([5]; 0.1 mg/kg subcutaneously, days 0, 3, 6, 9, 12, 15, 18, 21, 24, 27, day 14) was 98 % of control, the “Reaction threshold value, % of control” value ([5]; 0.1 mg/kg subcutaneously, days 0, 3, 6, 9, 12, 15, 18, 21, 24, 27, day 21) was 108 % of control and the “Reaction threshold value, % of control” value ([5]; 0.1 mg/kg subcutaneously, days 0, 3, 6, 9, 12, 15, 18, 21, 24, 27, day 28) was 118 % of control.
In the case of `COc1cc(Nc2ncnc(Nc3ccc4c(n3)NC(=O)C(C)(C)O4)n2)cc(OC)c1OC.Cc1ccc(S(=O)(=O)O)cc1.O` [salt monohydrate of 4-methylbenzenesulfonic acid and 2,2-dimethyl-6-((4-((3,4,5-trimethoxyphenyl)amino)-1,3,5-triazine-2-yl)amino)-2H-pyrido[3,2-1,4]oxazine-3(4H)-one Base (Polymorphic Modification B)], the “effect on osteoclast-mediated resorption of the mineralized matrix” value (mature human osteoclasts; concentrations from 1.0 μM) is reported as “statistically significant dose-dependent inhibitory effect”.
For `COc1cc(Nc2ncnc(Nc3ccc4c(n3)NC(=O)C(C)(C)O4)n2)cc(OC)c1OC.Cc1ccc(S(=O)(=O)O)cc1.O` [salt monohydrate of 4-methylbenzenesulfonic acid and 2,2-dimethyl-6-((4-((3,4,5-trimethoxyphenyl)amino)-1,3,5-triazine-2-yl)amino)-2H-pyrido[3,2-b][1,4]oxazine-3(4H)-one Base (Polymorphic Modification A)], the “effect on IL-1β-induced hypertrophic changes in chondrocytes (increase in aggrecan expression)” value ([6]; treatment for 3 days) was “statistically significant positive effect”, the AUC0-t [7] was 2,339 ng · h/ml and the “AUC0-∞” value [7] was 2,418 ng · h/ml. For the same compound, the T1/2 [7] was 5.0 h and the Tmax [7] was 1.5 h.
In the case of `COc1cc(Nc2ncnc(Nc3ccc4c(n3)NC(=O)C(C)(C)O4)n2)cc(OC)c1OC.Cc1ccc(S(=O)(=O)O)cc1` [salt of 4-methylbenzenesulfonic acid and 2,2-dimethyl-6-((4-((3,4,5-trimethoxyphenyl)amino)-1,3,5-triazine-2-yl)amino)-2H-pyrido[3,2-b][1,4]oxazine-3(4H)-one base], the inhibition at 0.5 µM (Lyn) is reported as > 50%, the remaining activity at 0.5 µM (Lyn; read-out: residual activity) is reported as 13% and the IC50 [1] is reported as 14 nM. For the same compound, the inhibition at 0.5 µM ([1]; 0.5 μmol/l) was > 50%, the remaining activity at 0.5 µM ([1]; 0.5 μmol/l, read-out: residual activity) was 6% and the IC50 (Syk kinase) was 40 nM. The inhibition at 0.5 µM (Syk kinase; 0.5 μmol/l) was > 50%, the “increase of aggrecan production” value ([6]; induced hypertrophic changes in chondrocytes) was “more than four-time increase” and the inhibition at 0.5 µM (Blk) was > 50%. The remaining activity at 0.5 µM (Blk; read-out: residual activity) was 20%, the inhibition at 0.5 µM (Yes) was > 50% and the remaining activity at 0.5 µM (Yes; read-out: residual activity) was 12%. For the same compound, the inhibition at 0.5 µM (Hck) was > 50%, the remaining activity at 0.5 µM (Hck; read-out: residual activity) was 25% and the inhibition at 0.5 µM (Fyn) was > 50%. The remaining activity at 0.5 µM (Fyn; read-out: residual activity) was 25%, the “residual Src-kinase family activity” value (Src-kinase family) was ≤ 25 % of control values and the inhibition at 0.5 µM (Lck) was > 50%. The remaining activity at 0.5 µM (Lck; read-out: residual activity) was 12%, the inhibition at 0.5 µM (Fgr) was > 50% and the remaining activity at 0.5 µM (Fgr; read-out: residual activity) was 23%. For the same compound, the inhibition at 0.5 µM (Frk) was > 50%.
In the case of `CN1CCN(CCOc2cc(OC3CCOCC3)c3c(Nc4c(Cl)ccc5c4OCO5)ncnc3c2)CC1` [saracatinib], the toxicity [8] is listed as “high toxicity”.
